According to ChEMBL document CHEMBL3991601, “The target landscape of clinical kinase drugs” (Science, 2017):
Active and inactive are the calls of the source.

Legend:
[1] = target: Guanine nucleotide-binding protein G(i) subunit alpha-2 (Homo sapiens, UniProt P04899)
GTP-binding protein 4 = GTP-binding protein 4 (Homo sapiens, UniProt Q9BZE4)
[2] = target: T1, Cyclin-G-associated kinase (Homo sapiens, UniProt O14976)
T1 sequence (O14976 whole entry): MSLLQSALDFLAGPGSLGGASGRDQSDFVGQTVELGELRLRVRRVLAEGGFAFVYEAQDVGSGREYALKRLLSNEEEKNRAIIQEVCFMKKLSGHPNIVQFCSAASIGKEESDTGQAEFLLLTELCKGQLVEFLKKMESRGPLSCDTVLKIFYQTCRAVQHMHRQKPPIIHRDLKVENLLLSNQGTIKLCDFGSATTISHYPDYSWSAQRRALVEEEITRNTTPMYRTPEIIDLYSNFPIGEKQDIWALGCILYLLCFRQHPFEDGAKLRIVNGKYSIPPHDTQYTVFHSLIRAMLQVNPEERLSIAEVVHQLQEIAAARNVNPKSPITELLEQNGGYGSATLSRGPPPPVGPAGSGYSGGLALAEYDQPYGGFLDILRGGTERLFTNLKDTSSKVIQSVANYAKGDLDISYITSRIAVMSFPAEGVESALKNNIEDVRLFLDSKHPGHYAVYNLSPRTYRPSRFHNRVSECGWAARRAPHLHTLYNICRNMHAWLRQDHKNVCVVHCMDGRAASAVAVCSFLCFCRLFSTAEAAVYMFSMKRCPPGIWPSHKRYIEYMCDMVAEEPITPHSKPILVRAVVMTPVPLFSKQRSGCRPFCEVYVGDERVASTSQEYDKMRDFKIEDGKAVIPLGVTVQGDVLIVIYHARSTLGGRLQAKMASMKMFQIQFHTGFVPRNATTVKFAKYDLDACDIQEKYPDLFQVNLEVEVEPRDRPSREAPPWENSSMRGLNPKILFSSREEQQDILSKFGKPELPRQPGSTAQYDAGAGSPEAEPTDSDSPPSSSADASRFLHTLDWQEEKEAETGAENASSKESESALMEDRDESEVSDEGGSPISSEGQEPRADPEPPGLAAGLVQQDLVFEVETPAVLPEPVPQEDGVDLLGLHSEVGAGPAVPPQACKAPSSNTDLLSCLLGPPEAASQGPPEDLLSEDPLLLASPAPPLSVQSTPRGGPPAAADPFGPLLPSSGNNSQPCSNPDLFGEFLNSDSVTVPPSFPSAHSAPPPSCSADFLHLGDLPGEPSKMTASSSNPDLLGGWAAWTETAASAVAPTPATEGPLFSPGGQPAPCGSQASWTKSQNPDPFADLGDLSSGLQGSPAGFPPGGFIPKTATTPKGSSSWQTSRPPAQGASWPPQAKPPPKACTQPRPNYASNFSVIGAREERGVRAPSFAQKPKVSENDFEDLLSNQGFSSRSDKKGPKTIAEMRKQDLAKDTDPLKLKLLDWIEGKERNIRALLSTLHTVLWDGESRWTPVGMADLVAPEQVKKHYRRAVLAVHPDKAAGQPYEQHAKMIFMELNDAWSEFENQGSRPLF

ADP/ATP translocase 2 = target: T2, ADP/ATP translocase 2 (Homo sapiens, UniProt P05141)
T2 sequence (P05141 whole entry): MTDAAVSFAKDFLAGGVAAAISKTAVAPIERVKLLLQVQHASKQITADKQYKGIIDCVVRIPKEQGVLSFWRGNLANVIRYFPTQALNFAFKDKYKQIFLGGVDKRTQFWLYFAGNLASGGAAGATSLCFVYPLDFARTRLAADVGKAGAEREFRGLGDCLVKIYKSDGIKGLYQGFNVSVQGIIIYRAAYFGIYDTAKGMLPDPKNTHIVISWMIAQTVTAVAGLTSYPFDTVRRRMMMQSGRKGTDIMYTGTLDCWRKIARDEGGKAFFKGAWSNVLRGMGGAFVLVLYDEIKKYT

[3] = target: Fibroblast growth factor receptor 1 (Homo sapiens, UniProt P11362)
Ephrin type-A receptor 5 = Ephrin type-A receptor 5 (Homo sapiens, UniProt P54756)
[4] = target: T3, ATP-dependent RNA helicase DDX1 (Homo sapiens, UniProt Q92499)
T3 sequence (Q92499 whole entry): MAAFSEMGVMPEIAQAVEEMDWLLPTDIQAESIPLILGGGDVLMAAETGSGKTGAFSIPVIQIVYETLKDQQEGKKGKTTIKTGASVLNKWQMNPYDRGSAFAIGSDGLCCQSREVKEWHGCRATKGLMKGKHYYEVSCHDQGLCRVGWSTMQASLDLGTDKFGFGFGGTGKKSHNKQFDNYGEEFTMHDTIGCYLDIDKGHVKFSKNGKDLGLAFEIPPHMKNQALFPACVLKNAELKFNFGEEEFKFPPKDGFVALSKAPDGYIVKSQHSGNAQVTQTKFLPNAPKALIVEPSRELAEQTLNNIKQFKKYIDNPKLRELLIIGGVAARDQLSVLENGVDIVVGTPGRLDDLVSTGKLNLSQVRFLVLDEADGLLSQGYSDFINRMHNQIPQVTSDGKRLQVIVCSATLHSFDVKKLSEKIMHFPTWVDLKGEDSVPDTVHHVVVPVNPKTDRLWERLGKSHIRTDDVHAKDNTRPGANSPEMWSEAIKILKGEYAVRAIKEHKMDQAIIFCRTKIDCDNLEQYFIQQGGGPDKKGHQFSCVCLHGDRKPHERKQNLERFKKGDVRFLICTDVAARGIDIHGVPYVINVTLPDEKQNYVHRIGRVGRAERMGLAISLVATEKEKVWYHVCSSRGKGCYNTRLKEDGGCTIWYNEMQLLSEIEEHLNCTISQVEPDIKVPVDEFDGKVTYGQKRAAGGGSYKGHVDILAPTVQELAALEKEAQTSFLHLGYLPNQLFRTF

[5] = target: Structural maintenance of chromosomes protein 2 (Homo sapiens, UniProt O95347)
[6] = target: Serine/threonine-protein kinase PAK 2 (Homo sapiens, UniProt Q13177)
[7] = target: Ribosomal protein S6 kinase alpha-1 (Homo sapiens, UniProt Q15418)
Also: in the data inactive means no Kd found up to 30 µM.

Chain of Fibroblast growth factor receptor 1 (P11362 whole entry): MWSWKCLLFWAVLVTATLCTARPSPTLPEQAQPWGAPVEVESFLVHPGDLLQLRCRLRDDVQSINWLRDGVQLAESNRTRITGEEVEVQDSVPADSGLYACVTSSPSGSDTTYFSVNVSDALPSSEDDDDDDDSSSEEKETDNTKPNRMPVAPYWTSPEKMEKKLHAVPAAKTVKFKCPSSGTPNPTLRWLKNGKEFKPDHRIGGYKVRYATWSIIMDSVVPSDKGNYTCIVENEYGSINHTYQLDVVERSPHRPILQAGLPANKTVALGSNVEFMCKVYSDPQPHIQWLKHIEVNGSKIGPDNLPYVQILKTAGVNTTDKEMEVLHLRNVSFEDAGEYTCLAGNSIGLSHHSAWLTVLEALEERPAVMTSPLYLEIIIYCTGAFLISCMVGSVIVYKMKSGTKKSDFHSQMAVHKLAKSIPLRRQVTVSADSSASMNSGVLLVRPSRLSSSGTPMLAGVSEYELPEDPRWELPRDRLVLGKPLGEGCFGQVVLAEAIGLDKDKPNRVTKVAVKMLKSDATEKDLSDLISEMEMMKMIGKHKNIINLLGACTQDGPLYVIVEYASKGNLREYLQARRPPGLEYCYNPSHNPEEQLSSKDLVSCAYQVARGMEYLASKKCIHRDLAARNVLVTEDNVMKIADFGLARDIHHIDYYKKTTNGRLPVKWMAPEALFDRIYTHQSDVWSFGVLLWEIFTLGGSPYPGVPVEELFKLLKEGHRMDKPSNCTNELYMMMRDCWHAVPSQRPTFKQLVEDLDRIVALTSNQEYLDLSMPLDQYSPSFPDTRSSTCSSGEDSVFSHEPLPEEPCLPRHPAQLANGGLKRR
Chain of Ephrin type-A receptor 5 (P54756 whole entry): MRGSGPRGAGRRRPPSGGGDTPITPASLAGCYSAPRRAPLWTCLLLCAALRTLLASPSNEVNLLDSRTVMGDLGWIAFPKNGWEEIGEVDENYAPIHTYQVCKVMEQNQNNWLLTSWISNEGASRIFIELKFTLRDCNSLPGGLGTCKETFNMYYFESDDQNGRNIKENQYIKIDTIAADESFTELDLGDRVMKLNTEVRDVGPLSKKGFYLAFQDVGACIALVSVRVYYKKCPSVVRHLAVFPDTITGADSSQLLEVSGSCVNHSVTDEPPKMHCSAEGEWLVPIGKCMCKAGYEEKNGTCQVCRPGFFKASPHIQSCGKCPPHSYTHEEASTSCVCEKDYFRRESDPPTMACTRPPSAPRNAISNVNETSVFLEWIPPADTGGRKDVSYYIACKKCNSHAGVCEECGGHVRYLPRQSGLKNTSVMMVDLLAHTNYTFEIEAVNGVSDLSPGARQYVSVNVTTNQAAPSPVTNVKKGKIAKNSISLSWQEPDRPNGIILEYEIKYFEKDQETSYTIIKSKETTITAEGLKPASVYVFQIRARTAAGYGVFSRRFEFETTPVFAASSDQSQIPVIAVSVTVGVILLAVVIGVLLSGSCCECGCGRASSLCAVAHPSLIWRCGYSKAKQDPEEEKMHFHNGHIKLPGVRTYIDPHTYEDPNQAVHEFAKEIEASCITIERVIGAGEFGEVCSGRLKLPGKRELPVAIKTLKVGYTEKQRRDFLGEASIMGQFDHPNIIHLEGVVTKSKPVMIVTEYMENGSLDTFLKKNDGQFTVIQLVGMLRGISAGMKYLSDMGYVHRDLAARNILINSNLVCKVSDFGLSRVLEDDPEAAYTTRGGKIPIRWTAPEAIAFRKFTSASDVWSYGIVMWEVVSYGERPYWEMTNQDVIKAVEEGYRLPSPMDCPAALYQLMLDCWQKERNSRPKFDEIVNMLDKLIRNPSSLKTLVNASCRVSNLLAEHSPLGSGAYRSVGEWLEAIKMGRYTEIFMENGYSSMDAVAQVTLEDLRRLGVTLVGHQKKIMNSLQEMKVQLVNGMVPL
Chain of Ribosomal protein S6 kinase alpha-1 (Q15418 whole entry): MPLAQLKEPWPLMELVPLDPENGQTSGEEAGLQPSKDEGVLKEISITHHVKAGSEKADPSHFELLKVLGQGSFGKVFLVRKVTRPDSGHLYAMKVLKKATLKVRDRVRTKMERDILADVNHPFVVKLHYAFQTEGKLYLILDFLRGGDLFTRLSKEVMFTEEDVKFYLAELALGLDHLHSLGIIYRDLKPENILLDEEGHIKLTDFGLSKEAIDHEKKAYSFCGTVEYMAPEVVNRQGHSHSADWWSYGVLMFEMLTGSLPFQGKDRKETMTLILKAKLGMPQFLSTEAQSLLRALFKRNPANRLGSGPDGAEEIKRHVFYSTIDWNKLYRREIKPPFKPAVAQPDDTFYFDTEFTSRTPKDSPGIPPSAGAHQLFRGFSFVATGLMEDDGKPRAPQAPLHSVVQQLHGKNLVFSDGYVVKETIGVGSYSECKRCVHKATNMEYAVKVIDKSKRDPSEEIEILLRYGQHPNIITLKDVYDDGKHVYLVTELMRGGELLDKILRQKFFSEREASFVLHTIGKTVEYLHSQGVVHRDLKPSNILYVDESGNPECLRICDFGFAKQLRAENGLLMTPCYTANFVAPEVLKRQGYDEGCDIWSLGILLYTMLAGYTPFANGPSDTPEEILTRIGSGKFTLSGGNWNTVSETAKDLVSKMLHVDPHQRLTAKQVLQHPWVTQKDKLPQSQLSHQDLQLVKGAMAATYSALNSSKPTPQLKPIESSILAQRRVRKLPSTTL
Chain of Structural maintenance of chromosomes protein 2 (O95347 whole entry): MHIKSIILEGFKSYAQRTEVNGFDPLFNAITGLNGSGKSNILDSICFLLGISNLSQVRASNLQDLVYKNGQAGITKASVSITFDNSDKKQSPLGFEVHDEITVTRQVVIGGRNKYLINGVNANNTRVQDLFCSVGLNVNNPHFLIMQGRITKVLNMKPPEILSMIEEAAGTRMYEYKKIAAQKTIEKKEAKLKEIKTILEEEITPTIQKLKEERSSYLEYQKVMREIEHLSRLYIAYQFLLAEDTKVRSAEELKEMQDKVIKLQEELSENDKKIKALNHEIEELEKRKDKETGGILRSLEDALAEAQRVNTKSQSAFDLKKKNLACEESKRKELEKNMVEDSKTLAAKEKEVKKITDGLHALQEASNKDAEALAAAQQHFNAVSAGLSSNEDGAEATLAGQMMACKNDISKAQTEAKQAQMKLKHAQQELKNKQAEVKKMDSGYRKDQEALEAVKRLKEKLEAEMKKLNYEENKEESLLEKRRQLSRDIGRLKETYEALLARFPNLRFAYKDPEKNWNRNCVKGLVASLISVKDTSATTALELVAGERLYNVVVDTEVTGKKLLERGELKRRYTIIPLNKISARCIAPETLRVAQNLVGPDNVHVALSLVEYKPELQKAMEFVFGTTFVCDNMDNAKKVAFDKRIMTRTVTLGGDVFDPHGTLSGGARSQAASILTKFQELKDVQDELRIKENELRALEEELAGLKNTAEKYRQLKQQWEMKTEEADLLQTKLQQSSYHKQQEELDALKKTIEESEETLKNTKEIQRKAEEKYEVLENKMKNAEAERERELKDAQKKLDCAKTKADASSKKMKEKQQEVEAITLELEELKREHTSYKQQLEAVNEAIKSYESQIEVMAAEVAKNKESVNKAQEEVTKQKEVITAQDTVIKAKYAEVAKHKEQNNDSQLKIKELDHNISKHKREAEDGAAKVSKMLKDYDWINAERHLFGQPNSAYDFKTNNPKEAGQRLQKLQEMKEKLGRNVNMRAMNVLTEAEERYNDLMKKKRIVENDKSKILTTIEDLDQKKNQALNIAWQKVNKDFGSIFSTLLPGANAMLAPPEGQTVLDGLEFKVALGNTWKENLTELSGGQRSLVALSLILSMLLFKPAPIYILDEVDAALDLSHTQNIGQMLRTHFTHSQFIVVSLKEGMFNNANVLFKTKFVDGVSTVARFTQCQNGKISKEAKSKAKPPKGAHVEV
Chain of Serine/threonine-protein kinase PAK 2 (Q13177 whole entry): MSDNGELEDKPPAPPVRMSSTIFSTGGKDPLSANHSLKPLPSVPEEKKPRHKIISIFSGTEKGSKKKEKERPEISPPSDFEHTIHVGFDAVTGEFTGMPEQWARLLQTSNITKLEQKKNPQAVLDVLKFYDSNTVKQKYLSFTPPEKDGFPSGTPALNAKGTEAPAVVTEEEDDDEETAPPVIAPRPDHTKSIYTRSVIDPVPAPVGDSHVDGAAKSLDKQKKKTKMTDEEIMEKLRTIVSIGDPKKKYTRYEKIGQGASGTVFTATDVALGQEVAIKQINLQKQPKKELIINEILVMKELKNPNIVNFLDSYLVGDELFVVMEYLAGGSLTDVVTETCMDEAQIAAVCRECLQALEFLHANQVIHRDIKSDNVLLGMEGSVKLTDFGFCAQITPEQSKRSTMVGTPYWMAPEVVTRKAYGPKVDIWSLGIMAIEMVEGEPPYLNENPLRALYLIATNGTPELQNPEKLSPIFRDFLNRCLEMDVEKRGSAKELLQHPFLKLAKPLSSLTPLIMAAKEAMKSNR
Chain of Guanine nucleotide-binding protein G(i) subunit alpha-2 (P04899 whole entry): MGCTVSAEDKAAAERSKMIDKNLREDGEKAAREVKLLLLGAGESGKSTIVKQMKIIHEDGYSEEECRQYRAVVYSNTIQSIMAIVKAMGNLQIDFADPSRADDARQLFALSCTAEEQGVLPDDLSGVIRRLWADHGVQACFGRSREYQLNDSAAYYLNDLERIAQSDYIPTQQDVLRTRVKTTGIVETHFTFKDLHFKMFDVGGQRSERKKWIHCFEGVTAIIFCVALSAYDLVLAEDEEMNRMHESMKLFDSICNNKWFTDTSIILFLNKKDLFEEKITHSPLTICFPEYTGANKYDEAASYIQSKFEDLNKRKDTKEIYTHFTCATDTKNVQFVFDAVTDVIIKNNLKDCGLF

| Kd [1] | Kd (GTP-binding protein 4) | Kd [2] | Kd (ADP/ATP translocase 2) | Kd [3] | Kd (Ephrin type-A receptor 5) | Kd [4] | Kd [5] | Kd [6] | Kd [7] | SMILES |
| --- | --- | --- | --- | --- | --- | --- | --- | --- | --- | --- |
| > 30 µM (inactive) | > 30 µM (inactive) | > 30 µM (inactive) | > 30 µM (inactive) | > 30 µM (inactive) | > 30 µM (inactive) | > 30 µM (inactive) | > 30 µM (inactive) | > 30 µM (inactive) | > 30 µM (inactive) | O=C(NC[C@H](O)CO)c1ccncc1Nc1ccc(I)cc1F [PIMASERTIB] |
| > 30 µM (inactive) | > 30 µM (inactive) | > 30 µM (inactive) | > 30 µM (inactive) | > 30 µM (inactive) | > 30 µM (inactive) | > 30 µM (inactive) | > 30 µM (inactive) | > 30 µM (inactive) | > 30 µM (inactive) | COc1cc(Nc2ncc(F)c(Nc3ccc4c(n3)N(COP(=O)(O)O)C(=O)C(C)(C)O4)n2)cc(OC)c1OC [FOSTAMATINIB] |
| > 30 µM (inactive) | > 30 µM (inactive) | > 30 µM (inactive) | > 30 µM (inactive) | > 30 µM (inactive) | > 30 µM (inactive) | > 30 µM (inactive) | > 30 µM (inactive) | > 30 µM (inactive) | > 30 µM (inactive) | S=C(NCc1ccc2c(c1)OCO2)N1CCN(c2ncnc3c2oc2ccccc23)CC1 [AMUVATINIB] |
| > 30 µM (inactive) | > 30 µM (inactive) | 0.45 µM (active) | > 30 µM (inactive) | > 30 µM (inactive) | > 30 µM (inactive) | > 30 µM (inactive) | > 30 µM (inactive) | > 30 µM (inactive) | > 30 µM (inactive) | C=CC(=O)Nc1cccc(Nc2nc(Nc3ccc(N4CCN(C(C)=O)CC4)cc3OC)ncc2C(F)(F)F)c1 [ROCILETINIB] |
| > 30 µM (inactive) | > 30 µM (inactive) | > 30 µM (inactive) | > 30 µM (inactive) | 0.777 µM (active) | > 30 µM (inactive) | > 30 µM (inactive) | > 30 µM (inactive) | > 30 µM (inactive) | > 30 µM (inactive) | Cc1cc(Nc2nc(N[C@@H](C)c3ncc(F)cn3)ncc2Cl)n[nH]1 [AZD-1480] |
| > 30 µM (inactive) | > 30 µM (inactive) | 2.19 µM (active) | > 30 µM (inactive) | > 30 µM (inactive) | > 30 µM (inactive) | > 30 µM (inactive) | > 30 µM (inactive) | > 30 µM (inactive) | > 30 µM (inactive) | CCN1CCN(Cc2ccc(Nc3ncc(F)c(-c4cc(F)c5nc(C)n(C(C)C)c5c4)n3)nc2)CC1 [ABEMACICLIB] |
| > 30 µM (inactive) | > 30 µM (inactive) | 0.259 µM (active) | > 30 µM (inactive) | > 30 µM (inactive) | > 30 µM (inactive) | > 30 µM (inactive) | > 30 µM (inactive) | > 30 µM (inactive) | > 30 µM (inactive) | CCc1cc2c(cc1N1CCC(N3CCOCC3)CC1)C(C)(C)c1[nH]c3cc(C#N)ccc3c1C2=O [ALECTINIB] |
| > 30 µM (inactive) | > 30 µM (inactive) | 0.725 µM (active) | > 30 µM (inactive) | > 30 µM (inactive) | > 30 µM (inactive) | > 30 µM (inactive) | > 30 µM (inactive) | > 30 µM (inactive) | > 30 µM (inactive) | C#Cc1cccc(Nc2ncnc3cc4c(cc23)OCCOCCOCCO4)c1 [ICOTINIB] |
| > 30 µM (inactive) | > 30 µM (inactive) | > 30 µM (inactive) | > 30 µM (inactive) | > 30 µM (inactive) | > 30 µM (inactive) | > 30 µM (inactive) | > 30 µM (inactive) | > 30 µM (inactive) | > 30 µM (inactive) | COc1ccc2c(OCc3nnc4ccc(-c5ccccc5)nn34)ccnc2c1 [AMG-208] |
| > 30 µM (inactive) | – | > 30 µM (inactive) | > 30 µM (inactive) | > 30 µM (inactive) | > 30 µM (inactive) | > 30 µM (inactive) | > 30 µM (inactive) | > 30 µM (inactive) | > 30 µM (inactive) | CCOc1ccn(-c2ccc(F)cc2)c(=O)c1C(=O)Nc1ccc(Oc2ccnc(N)c2Cl)c(F)c1 [BMS-777607] |

| SMILES | Kd [1] | Kd (GTP-binding protein 4) | Kd [2] | Kd (ADP/ATP translocase 2) | Kd [3] | Kd (Ephrin type-A receptor 5) | Kd [4] | Kd [5] | Kd [6] | Kd [7] |
| --- | --- | --- | --- | --- | --- | --- | --- | --- | --- | --- |
| COc1cc(F)c(F)c(Nc2ccc(I)cc2F)c1NS(=O)(=O)C1(C[C@H](O)CO)CC1 [REFAMETINIB] | > 30 µM (inactive) | > 30 µM (inactive) | > 30 µM (inactive) | > 30 µM (inactive) | > 30 µM (inactive) | > 30 µM (inactive) | > 30 µM (inactive) | > 30 µM (inactive) | > 30 µM (inactive) | > 30 µM (inactive) |
| CC1(COc2ccc3c(c2)ncn3-c2ccc3cccc(N4CCC(N)CC4)c3n2)COC1 [CRENOLANIB] | > 30 µM (inactive) | > 30 µM (inactive) | 2.41 µM (active) | > 30 µM (inactive) | > 30 µM (inactive) | > 30 µM (inactive) | > 30 µM (inactive) | > 30 µM (inactive) | > 30 µM (inactive) | > 30 µM (inactive) |
| CC(C)CC(=O)Nc1[nH]nc2c1CN(C(=O)C1CCN(C)CC1)C2(C)C [PHA-793887] | > 30 µM (inactive) | > 30 µM (inactive) | > 30 µM (inactive) | > 30 µM (inactive) | > 30 µM (inactive) | > 30 µM (inactive) | > 30 µM (inactive) | > 30 µM (inactive) | > 30 µM (inactive) | > 30 µM (inactive) |
| COCCN1CCN(Cc2ccc(-c3n[nH]c4c3C(=O)c3c(NC(=O)NN5CCOCC5)cccc3-4)cc2)CC1 [RGB-286638] | > 30 µM (inactive) | > 30 µM (inactive) | 0.004 µM (active) | > 30 µM (inactive) | > 30 µM (inactive) | > 30 µM (inactive) | > 30 µM (inactive) | > 30 µM (inactive) | > 30 µM (inactive) | > 30 µM (inactive) |
